These are literature values, as cited in patent US20220313582A1, “METHOD FOR DYEING KERATINOUS MATERIAL, COMPRISING THE USE OF AN ORGANOSILICON COMPOUND, A CHROMOPHORIC COMPOUND AND A FILM-FORMING POLYMER II” (Henkel AG & Co. KGaA, priority 2019, published 2022).

The conditions of this data set: for solubility in water: 25° C.

For `O=C([O-])c1c(Cl)c(Cl)c(Cl)c(Cl)c1-c1c2c(Br)cc(=O)c(Br)c-2oc2c(Br)c(O)cc(Br)c12.O=C([O-])c1c(Cl)c(Cl)c(Cl)c(Cl)c1-c1c2c(Br)cc(=O)c(Br)c-2oc2c(Br)c(O)cc(Br)c12.[Na+].[Na+]` [Acid Red 92, disodium salt of 3,4,5,6-tetrachloro-2-(1,4,5,8-tetrabromo-6-hydroxy-3-oxoxanthen-9-yl)benzoic acid], the solubility in water entry was “greater than 10 g/L”. Consider `O=S(=O)([O-])c1ccc(N=Nc2c(O)ccc3ccccc23)cc1.[Na+]` [Acid Orange 7, sodium salt of 4-[(2-hydroxy-1-naphthyl)azo]benzene sulphonate], for which the solubility in water result is listed as “more than 7 g/L”. Turning to `Nc1cc(S(=O)(=O)[O-])cc2cc(S(=O)(=O)[O-])c(N=Nc3ccccc3)c(O)c12.[Na+].[Na+]` [Acid Red 33, disodium salt of 5-amino-4-hydroxy-3-(phenylazo)-naphthalene-2,7-disulphonate], the solubility in water is 2500 µg/mL.

Turning to `O=C([O-])C1=NN(c2ccc(S(=O)(=O)[O-])cc2)C(=O)C1N=Nc1ccc(S(=O)(=O)[O-])cc1.[Na+].[Na+].[Na+]` (stereo not shown) [Acid Yellow 23, trisodium salt of 4,5-dihydro-5-oxo-1-(4-sulfophenyl)-4-((4-sulfophenyl)azo)-1H-pyrazole-3-carboxylic acid], under “at 25° C.”, the “solubility in water (in words)” value is on record as “highly soluble”.
